Experimental findings from PMC6271825, “Synthesis and Cytotoxic Activity Evaluation of Novel Arylpiperazine Derivatives on Human Prostate Cancer Cell Lines” (Molecules, 2014) are described below.

Structures can show the parent of a compound that is named as a salt.

One data set relates to PC-3 cells. The data set is described as follows: CCK-8 in vitro cytotoxicity assay, PC-3. In kind it is cell-based. The conditions noted are these: human prostate cancer cell line PC-3, CCK-8, 24 h exposure, mean ± SD of three experiments. On the procedure: (§1) The synthesized target compounds 5 to 29 were evaluated for their in vitro cytotoxic activities against the three human prostate cancer cell lines (PC-3, LNCaP, and DU145), and compared with their effects on human prostate epithelial cell line RWPE-1 by CCK-8 assay.
(§2) PC-3 and RWPE-1 cells were cultured in Dulbecco’s modification Eagle’s medium (DMEM, Invitrogen, Carlsbad, CA, USA) supplemented with 10% fetal bovine serum (FBS, Hyclone, Logan, UT, USA), 100 U/mL penicillin and 0.1 mg/mL streptomycin (Invitrogen). DU145 cells were cultured in RPMI1640 media supplemented with 10% fetal bovine serum (FBS, Hyclone), 100 U/mL penicillin and 0.1 mg/mL streptomycin (Invitrogen). LNCaP cells were cultured in F12 media supplemented with 10% fetal bovine serum (FBS, Hyclone), 100 U/mL penicillin and 0.1 mg/mL streptomycin (Invitrogen). The cells were incubated at 37 °C in a humidified atmosphere with 5% CO2.
(§3) Cell proliferation was measured with the Cell Counting Kit-8 (CCK-8) assay kit (Dojindo Corp., Kumamoto, Japan). Cells were harvested during logarithmic growth phase and seeded in 96-well plates at a density of 1 × 10^5 cells/mL, and cultured at 37 °C in a humidified incubator (5% CO2) for 24 h, followed by exposure to various concentrations of compounds tested for 24 h. Subsequently 10 μL of CCK-8 (Dojindo) was added to each well, the cells were then incubated for an additional 1 h at 37 °C to convert WST-8 into formazan. Cell growth inhibition was determined by measuring the absorbance (Abs) at λ = 450 nm using amicroplate reader. Three independent experiments were performed. Cell growth inhibition was calculated according to the following equation: Growth inhibition = (1 − OD of treated cells/OD of control cells) × 100%
(§4) The half maximal inhibitory concentrations (IC50) were obtained from linear regression analysis of the concentration-response curves plotted for each tested compound.

The subject of a further data set is LNCaP cells. The data set is described as follows: CCK-8 in vitro cytotoxicity assay, LNCaP. In kind it is cell-based. The conditions noted are these: Homo sapiens, LNCaP, 24 h, human prostate cancer cell line LNCaP, CCK-8, 24 h exposure, mean ± SD of three experiments. On the procedure:
as §1, §2, §3, §4

The test system of a further data set is DU145 cells. Description: CCK-8 in vitro cytotoxicity assay, DU145. The conditions noted are these: DU-145; human prostate cancer cell line DU145, CCK-8, 24 h exposure, mean ± SD of three experiments. The format is cell-based. On the procedure: as §1, §2, §3, §4
Another data set relates to RWPE-1 cells. The data set is described as follows: CCK-8 in vitro cytotoxicity assay, RWPE-1 normal prostate epithelial cells. In kind it is cell-based. The conditions noted are these: human prostate epithelial cell line RWPE-1 (normal), CCK-8, 24 h exposure, mean ± SD of three experiments. As to the method: as §1, §2, §3, §4

With `c1ccc(N2CCN(CCc3ccc(COc4ccc5c(c4)OCO5)cc3)CC2)cc1` (as salt: HCl) [Compound 5, 1-(2-(4-((Benzo[d][1,3]dioxol-5-yloxy)methyl)phenyl)ethyl)-4-phenylpiperazine], the melting point lay in the range of 195 to 196 °C.
Same read-out and setting: under `c1ccc(CN2CCN(CCc3ccc(COc4ccc5c(c4)OCO5)cc3)CC2)cc1` (as salt: HCl) [Compound 6, 1-(2-(4-((Benzo[d][1,3]dioxol-5-yloxy)methyl)phenyl)ethyl)-4-benzylpiperazine] stands 177 to 178 °C; under `c1ccc(N2CCN(CCc3ccc(COc4ccc5c(c4)OCO5)cc3)CC2)nc1` (as salt: HCl) [Compound 7, 1-(2-(4-((Benzo[d][1,3]dioxol-5-yloxy)methyl)phenyl)ethyl)-4-(pyridin-2-yl)piperazine], 185 to 186 °C; under `c1cnc(N2CCN(CCc3ccc(COc4ccc5c(c4)OCO5)cc3)CC2)nc1` (as salt: HCl) [Compound 8, 2-(4-(2-(4-((Benzo[d][1,3]dioxol-5-yloxy)methyl)phenyl)ethyl)piperazin-1-yl)pyrimidine], 181 to 182 °C.
On the same count and under the same terms, the same measure for `Cc1ccccc1N1CCN(CCc2ccc(COc3ccc4c(c3)OCO4)cc2)CC1` (as salt: HCl) [Compound 9, 1-(2-(4-((Benzo[d][1,3]dioxol-5-yloxy)methyl)phenyl)ethyl)-4-o-tolylpiperazine]: 202 to 203 °C; for `Cc1ccc(N2CCN(CCc3ccc(COc4ccc5c(c4)OCO5)cc3)CC2)cc1` (as salt: HCl) [Compound 10, 1-(2-(4-((Benzo[d][1,3]dioxol-5-yloxy)methyl)phenyl)ethyl)-4-p-tolylpiperazine]: 184 to 185 °C.
Still for that read-out and setting: the same measure for `Cc1cccc(N2CCN(CCc3ccc(COc4ccc5c(c4)OCO5)cc3)CC2)c1` (as salt: HCl) [Compound 11, 1-(2-(4-((Benzo[d][1,3]dioxol-5-yloxy)methyl)phenyl)ethyl)-4-m-tolylpiperazine]: 171 to 172 °C.
Consider `COc1ccccc1N1CCN(CCc2ccc(COc3ccc4c(c3)OCO4)cc2)CC1` (as salt: HCl) [Compound 12, 1-(2-(4-((Benzo[d][1,3]dioxol-5-yloxy)methyl)phenyl)ethyl)-4-(2-methoxyphenyl)piperazine], for which the melting point lay in the range of 173 to 174 °C.
`COc1ccc(N2CCN(CCc3ccc(COc4ccc5c(c4)OCO5)cc3)CC2)cc1` (as salt: HCl) [Compound 13, 1-(2-(4-((Benzo[d][1,3]dioxol-5-yloxy)methyl)phenyl)ethyl)-4-(4-methoxyphenyl)piperazine] returned a melting point of 174 to 175 °C.
Still for that read-out and setting: under `COc1cccc(N2CCN(CCc3ccc(COc4ccc5c(c4)OCO5)cc3)CC2)c1` (as salt: HCl) [Compound 14, 1-(2-(4-((Benzo[d][1,3]dioxol-5-yloxy)methyl)phenyl)ethyl)-4-(3-methoxyphenyl)piperazine] stands 171 to 172 °C.
On the same count and under the same terms, under `Fc1ccccc1N1CCN(CCc2ccc(COc3ccc4c(c3)OCO4)cc2)CC1` (as salt: HCl) [Compound 15, 1-(2-(4-((Benzo[d][1,3]dioxol-5-yloxy)methyl)phenyl)ethyl)-4-(2-fluorophenyl)piperazine] stands 187 to 188 °C; under `Fc1ccc(N2CCN(CCc3ccc(COc4ccc5c(c4)OCO5)cc3)CC2)cc1` (as salt: HCl) [Compound 16, 1-(2-(4-((Benzo[d][1,3]dioxol-5-yloxy)methyl)phenyl)ethyl)-4-(4-fluorophenyl)piperazine], 196 to 197 °C.
The same measure, in the same setting: under `Fc1ccc(N2CCN(CCc3ccc(COc4ccc5c(c4)OCO5)cc3)CC2)c(F)c1` (as salt: HCl) [Compound 17, 1-(2-(4-((Benzo[d][1,3]dioxol-5-yloxy)methyl)phenyl)ethyl)-4-(2,4-difluorophenyl)piperazine] stands 169 to 170 °C; under `N#Cc1ccc(N2CCN(CCc3ccc(COc4ccc5c(c4)OCO5)cc3)CC2)c(F)c1` (as salt: HCl) [Compound 18, 4-(4-(2-(4-((Benzo[d][1,3]dioxol-5-yloxy)methyl)phenyl)ethyl)piperazin-1-yl)-3-fluorobenzonitrile], 182 to 183 °C.
Regarding `Clc1ccccc1N1CCN(CCc2ccc(COc3ccc4c(c3)OCO4)cc2)CC1` (as salt: HCl) [Compound 19, 1-(2-(4-((Benzo[d][1,3]dioxol-5-yloxy)methyl)phenyl)ethyl)-4-(2-chlorophenyl)piperazine], the melting point was in the range of 176 to 177 °C.
Same read-out and setting: the same measure for `Clc1ccc(N2CCN(CCc3ccc(COc4ccc5c(c4)OCO5)cc3)CC2)cc1` (as salt: HCl) [Compound 20, 1-(2-(4-((Benzo[d][1,3]dioxol-5-yloxy)methyl)phenyl)ethyl)-4-(4-chlorophenyl)piperazine]: 164 to 165 °C.
Same read-out and setting: the same measure for `Clc1cccc(N2CCN(CCc3ccc(COc4ccc5c(c4)OCO5)cc3)CC2)c1` (as salt: HCl) [Compound 21, 1-(2-(4-((Benzo[d][1,3]dioxol-5-yloxy)methyl)phenyl)ethyl)-4-(3-chlorophenyl)piperazine]: 177 to 178 °C.
For `Clc1cccc(N2CCN(CCc3ccc(COc4ccc5c(c4)OCO5)cc3)CC2)c1Cl` (as salt: HCl) [Compound 22, 1-(2-(4-((Benzo[d][1,3]dioxol-5-yloxy)methyl)phenyl)ethyl)-4-(2,3-dichlorophenyl)piperazine], the melting point lay within 177 to 178 °C.
The same measure, in the same setting: the same measure for `COc1ccc(Cl)cc1N1CCN(CCc2ccc(COc3ccc4c(c3)OCO4)cc2)CC1` (as salt: HCl) [Compound 23, 1-(2-(4-((Benzo[d][1,3]dioxol-5-yloxy)methyl)phenyl)ethyl)-4-(5-chloro-2-methoxyphenyl)piperazine]: 177 to 178 °C.
Turning to `Brc1ccc(N2CCN(CCc3ccc(COc4ccc5c(c4)OCO5)cc3)CC2)cc1` (as salt: HCl) [Compound 24, 1-(2-(4-((Benzo[d][1,3]dioxol-5-yloxy)methyl)phenyl)ethyl)-4-(4-bromophenyl)piperazine], the melting point lay in the range of 173 to 174 °C.
Regarding `FC(F)(F)c1ccccc1N1CCN(CCc2ccc(COc3ccc4c(c3)OCO4)cc2)CC1` (as salt: HCl) [Compound 25, 1-(2-(4-((Benzo[d][1,3]dioxol-5-yloxy)methyl)phenyl)ethyl)-4-(2-(trifluoromethyl)phenyl)piperazine], the melting point was in the range of 171 to 172 °C.
Still for that read-out and setting: under `FC(F)(F)c1ccc(N2CCN(CCc3ccc(COc4ccc5c(c4)OCO5)cc3)CC2)cc1` (as salt: HCl) [Compound 26, 1-(2-(4-((Benzo[d][1,3]dioxol-5-yloxy)methyl)phenyl)ethyl)-4-(4-(trifluoromethyl)phenyl)piperazine] stands 176 to 177 °C; under `CC(=O)c1ccc(N2CCN(CCc3ccc(COc4ccc5c(c4)OCO5)cc3)CC2)cc1` (as salt: HCl) [Compound 27, 1-(4-(4-(2-(4-((Benzo[d][1,3]dioxol-5-yloxy)methyl)phenyl)ethyl)piperazin-1-yl)phenyl)ethanone], 183 to 184 °C.
Turning to `CC(=O)c1ccc(N2CCN(CCc3ccc(COc4ccc5c(c4)OCO5)cc3)CC2)cc1` [Compound 27, 1-(4-(4-(2-(4-((Benzo[d][1,3]dioxol-5-yloxy)methyl)phenyl)ethyl)piperazin-1-yl)phenyl)ethanone], the IC50 with PC-3 cells was 24.9 ± 0.68 µM; in the data set with LNCaP cells it was over 50 µM; with DU145 cells, over 50 µM; in the data set on RWPE-1 cells, 26.8 ± 3.01 µM.
In the case of `c1ccc(C2CCN(CCc3ccc(COc4ccc5c(c4)OCO5)cc3)CC2)cc1` [Compound 28, 1-(2-(4-((Benzo[d][1,3]dioxol-5-yloxy)methyl)phenyl)ethyl)-4-phenylpiperidine], the IC50 in the data set with PC-3 cells was over 50 µM; with LNCaP cells it was 18.2 ± 1.88 µM; in the data set with DU145 cells, 24.7 ± 2.22 µM; in the data set with RWPE-1 cells, 28.5 ± 2.18 µM.
The like results for `OC1(c2ccccc2)CCN(CCc2ccc(COc3ccc4c(c3)OCO4)cc2)CC1` [Compound 29, 1-(2-(4-((Benzo[d][1,3]dioxol-5-yloxy)methyl)phenyl)ethyl)-4-phenylpiperidin-4-ol] were, in that order, over 50 µM, 43 ± 7.58 µM, 38.2 ± 2.45 µM and 19.73 ± 0.01 µM.
The like results for `COc1ccccc1N1CCN(CC(O)COc2cccc3ccccc23)CC1` (stereo not drawn) [naftopidil, reference compound] were, in that order, 42.1 ± 0.79 µM, 22.4 ± 0.61 µM, 34.58 ± 0.31 µM and over 50 µM.
